Columns and labels:
[1] = biological target: T1, CK1α (Homo sapiens, UniProt P48729+Q96SW2); assay: Western blot, degradation of substrate protein in hPBMCs; assay type: cell-based
T1 construct: effects of the compounds of the present disclosure on the expression of target proteins in cells; endogenous in cells; host or cells: human PBMCs (Milecell Biotechnologies)
Description: (§1) Conventional Western blot assay was performed to evaluate the effects of the compounds of the present disclosure on the expression of target proteins in cells. • (1) Cell Seeding and Protein Harvesting: Human peripheral blood mononuclear cells (hPBMCs) at a density of 1×10^6 cells/mL were thawed according to the PBMC Recovery Protocol (Milecell Biotechnologies Inc, Shanghai). […] After 24 hours of compounds treatment, cells were harvested and lysed in RIPA protein lysate containing protease inhibitors on ice for 30 min, followed by centrifugation. The supernatant was aspirated as the extracted total cell protein. The protein concentration of the supernatant was determined using the conventional BCA (Bicinchoninic Acid) assay. • (2) To the collected supernatant, 5X SDS sample loading buffer was added, followed by denaturation at 95°C for 5 minutes. The denatured samples were then separated by SDS-PAGE electrophoresis on a polyacrylamide gel, transferred onto a nitrocellulose membrane (0.45 µm NC membrane), blocked with blocking buffer at room temperature for 1 hour, and subjected to antibody incubation and development procedures according to the antibody manufacturer's instructions (Cell Signaling Technology Company).
(§2) Half-Maximal Degradation Concentration value (the drug concentration required for degrading proteins by 50%, abbreviated as DC50) reads method: comparing the grayscale values of Western blot bands from drug-treated samples with those from blank DMSO-treated controls, and identifying the drug concentration range at which the grayscale value is half that of the DMSO-treated control bands.
(§3) DC50 values can be calculated using ImageJ software to measure grayscale values of Western blot bands from drug-treated samples. The concentration-response curve is fitted to estimate the drug concentration corresponding to half the grayscale value.
(§4) Target protein remaining (%) refers to the percentage of target protein remaining in cells after treatment with protein degrader compounds.
(§5) Calculation method for target protein remaining (%): Use ImageJ software to measure grayscale values of Western blot bands from drug (protein degrader)-treated samples. The grayscale value of drug-treated bands is divided by that of internal control protein bands, and the resulting quotient is normalized to obtain the relative percentage of remaining target protein after protein degrader treatment.
(§6) Target protein degradation rate (%) = 1−target protein remaining (%). [formula]

[2] = biological target: T2, IKZF1 (Homo sapiens, UniProt Q13422+Q96SW2); assay: as above; assay type: cell-based
T2 construct: effects of the compounds of the present disclosure on the expression of target proteins in cells; endogenous in cells; host or cells: human PBMCs (Milecell Biotechnologies)
Description: as §1, §2, §3, §4, §5, §6

[3] = biological target: T3, IKZF2 (Homo sapiens, UniProt Q96SW2+Q9UKS7); assay: as above; assay type: cell-based
T3 construct: effects of the compounds of the present disclosure on the expression of target proteins in cells; endogenous in cells; host or cells: human PBMCs (Milecell Biotechnologies)
Description: as §1, §2, §3, §4, §5, §6

[4] = biological target: T4, IKZF3 (Homo sapiens, UniProt Q96SW2+Q9UKT9); assay: as above; assay type: cell-based
T4 construct: effects of the compounds of the present disclosure on the expression of target proteins in cells; endogenous in cells; host or cells: human PBMCs (Milecell Biotechnologies)
Description: as §1, §2, §3, §4, §5, §6

[5] = biological target: T5, WEE1 (Homo sapiens, UniProt P30291+Q96SW2); assay: as above; assay type: cell-based
T5 construct: effects of the compounds of the present disclosure on the expression of target proteins in cells; endogenous in cells; host or cells: human PBMCs (Milecell Biotechnologies)
Description: as §1, §2, §3, §4, §5, §6

[6] = test system: GSPT1; assay: as above; assay type: cell-based, Human
[7] = biological target: T6, human Cereblon WT GST-tagged protein (Homo sapiens, UniProt Q96SW2); assay: CRBN-binding affinity, HTRF (CEREBLON BINDING kit); conditions: for inhibition at 0.5 µM: read-out: Inhibition Rate at 0.5 µM (%); for inhibition at 2 µM: read-out: Inhibition Rate at 2 µM (%)
T6 construct: purchased CISBIO 64BDCRBNPEH

[8] = Western blot, 24 hours of compound treatment, compounds tested at 50 nM and 500 nM (concentration for the table not stated)
[9] = 24 hours treatment, compounds at 50 nM and 500 nM (concentration behind the class not stated)

T5 sequence (P30291 whole entry): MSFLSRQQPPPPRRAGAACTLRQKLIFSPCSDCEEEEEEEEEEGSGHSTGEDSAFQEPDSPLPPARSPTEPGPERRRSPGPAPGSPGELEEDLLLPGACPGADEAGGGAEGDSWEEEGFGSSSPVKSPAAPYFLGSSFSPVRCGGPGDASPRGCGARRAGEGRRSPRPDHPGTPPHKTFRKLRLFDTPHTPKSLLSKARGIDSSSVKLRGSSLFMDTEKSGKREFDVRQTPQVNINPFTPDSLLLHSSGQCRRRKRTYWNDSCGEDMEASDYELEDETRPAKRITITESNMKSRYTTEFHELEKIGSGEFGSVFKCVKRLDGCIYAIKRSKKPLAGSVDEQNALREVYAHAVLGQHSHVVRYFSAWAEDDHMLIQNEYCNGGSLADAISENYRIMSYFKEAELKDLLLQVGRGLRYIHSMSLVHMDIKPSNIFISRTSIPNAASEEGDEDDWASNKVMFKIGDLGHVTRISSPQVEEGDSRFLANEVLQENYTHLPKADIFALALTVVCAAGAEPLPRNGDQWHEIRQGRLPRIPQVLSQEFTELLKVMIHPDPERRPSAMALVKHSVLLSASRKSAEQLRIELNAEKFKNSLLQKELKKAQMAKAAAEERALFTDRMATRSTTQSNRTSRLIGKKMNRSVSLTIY
T5 sequence (Q96SW2 whole entry): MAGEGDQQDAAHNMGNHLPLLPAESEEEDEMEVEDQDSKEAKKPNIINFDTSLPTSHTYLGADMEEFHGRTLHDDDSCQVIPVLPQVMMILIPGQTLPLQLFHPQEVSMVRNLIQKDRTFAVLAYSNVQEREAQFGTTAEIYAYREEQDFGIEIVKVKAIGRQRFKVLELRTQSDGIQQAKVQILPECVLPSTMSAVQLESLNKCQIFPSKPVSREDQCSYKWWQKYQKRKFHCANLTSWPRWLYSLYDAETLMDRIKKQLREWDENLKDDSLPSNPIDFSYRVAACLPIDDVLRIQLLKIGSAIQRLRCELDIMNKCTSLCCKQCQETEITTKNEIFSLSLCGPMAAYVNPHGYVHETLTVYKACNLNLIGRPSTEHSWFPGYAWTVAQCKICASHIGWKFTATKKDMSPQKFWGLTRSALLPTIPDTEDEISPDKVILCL
T5 sequence (Q16531 whole entry partner): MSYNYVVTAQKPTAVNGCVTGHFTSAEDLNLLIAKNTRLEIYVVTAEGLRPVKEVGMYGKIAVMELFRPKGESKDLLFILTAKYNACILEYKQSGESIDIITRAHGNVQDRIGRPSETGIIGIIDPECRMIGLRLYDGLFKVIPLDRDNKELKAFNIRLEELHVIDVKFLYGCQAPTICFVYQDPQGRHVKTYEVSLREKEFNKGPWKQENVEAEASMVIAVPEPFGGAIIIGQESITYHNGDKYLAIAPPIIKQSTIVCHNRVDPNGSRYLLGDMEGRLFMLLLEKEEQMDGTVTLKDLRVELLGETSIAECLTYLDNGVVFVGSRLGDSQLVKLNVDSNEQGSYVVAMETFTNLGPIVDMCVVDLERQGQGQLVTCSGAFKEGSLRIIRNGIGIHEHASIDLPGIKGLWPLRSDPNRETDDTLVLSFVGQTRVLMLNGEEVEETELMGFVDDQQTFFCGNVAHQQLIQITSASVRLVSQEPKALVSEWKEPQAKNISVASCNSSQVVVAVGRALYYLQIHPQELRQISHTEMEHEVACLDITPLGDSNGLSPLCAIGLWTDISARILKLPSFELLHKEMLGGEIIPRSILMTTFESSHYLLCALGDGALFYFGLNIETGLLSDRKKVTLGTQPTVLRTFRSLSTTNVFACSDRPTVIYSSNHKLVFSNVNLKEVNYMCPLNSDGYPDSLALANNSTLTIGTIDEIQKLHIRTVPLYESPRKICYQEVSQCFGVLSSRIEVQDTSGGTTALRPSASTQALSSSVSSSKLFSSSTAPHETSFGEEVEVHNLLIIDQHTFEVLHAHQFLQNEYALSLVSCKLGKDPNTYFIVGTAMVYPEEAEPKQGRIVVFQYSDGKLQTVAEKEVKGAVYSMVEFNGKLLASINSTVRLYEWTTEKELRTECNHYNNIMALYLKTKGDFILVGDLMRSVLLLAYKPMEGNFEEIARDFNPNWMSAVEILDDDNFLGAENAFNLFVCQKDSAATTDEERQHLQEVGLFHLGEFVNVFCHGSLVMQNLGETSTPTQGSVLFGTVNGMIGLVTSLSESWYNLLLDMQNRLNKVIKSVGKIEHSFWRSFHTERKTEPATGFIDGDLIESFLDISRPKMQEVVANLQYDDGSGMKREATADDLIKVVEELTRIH
T4 sequence (Q9UKT9 whole entry): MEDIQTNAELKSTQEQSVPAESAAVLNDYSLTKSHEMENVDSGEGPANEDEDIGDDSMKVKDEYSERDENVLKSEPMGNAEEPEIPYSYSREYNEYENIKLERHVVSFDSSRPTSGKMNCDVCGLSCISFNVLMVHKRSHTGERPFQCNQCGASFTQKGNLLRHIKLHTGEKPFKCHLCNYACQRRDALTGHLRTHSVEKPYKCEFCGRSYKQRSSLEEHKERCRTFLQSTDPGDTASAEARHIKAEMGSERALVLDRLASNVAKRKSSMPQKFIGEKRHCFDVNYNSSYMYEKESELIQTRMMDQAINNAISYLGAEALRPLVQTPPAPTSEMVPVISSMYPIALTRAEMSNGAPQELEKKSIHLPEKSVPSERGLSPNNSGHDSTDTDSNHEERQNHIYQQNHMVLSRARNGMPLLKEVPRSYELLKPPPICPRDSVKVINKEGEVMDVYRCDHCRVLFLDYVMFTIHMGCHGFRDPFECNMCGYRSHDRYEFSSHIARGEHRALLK
T4 sequence (Q96SW2 whole entry): as the sequence (Q96SW2 whole entry) above
T4 sequence (Q16531 whole entry partner): as the sequence (Q16531 whole entry partner) above
T6 sequence (Q96SW2 whole entry): as the sequence (Q96SW2 whole entry) above
T1 sequence (P48729 whole entry): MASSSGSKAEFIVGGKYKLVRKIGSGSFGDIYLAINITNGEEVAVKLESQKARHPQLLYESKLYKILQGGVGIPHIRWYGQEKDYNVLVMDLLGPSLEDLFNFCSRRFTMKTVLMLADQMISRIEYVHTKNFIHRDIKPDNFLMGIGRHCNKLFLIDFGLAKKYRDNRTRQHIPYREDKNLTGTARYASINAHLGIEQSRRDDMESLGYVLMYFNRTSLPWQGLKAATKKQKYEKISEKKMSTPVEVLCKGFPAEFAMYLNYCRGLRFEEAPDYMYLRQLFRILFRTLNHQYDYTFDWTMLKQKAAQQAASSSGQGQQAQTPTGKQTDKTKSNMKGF
T1 sequence (Q96SW2 whole entry): as the sequence (Q96SW2 whole entry) above
T1 sequence (Q16531 whole entry partner): as the sequence (Q16531 whole entry partner) above
T2 sequence (Q13422 whole entry): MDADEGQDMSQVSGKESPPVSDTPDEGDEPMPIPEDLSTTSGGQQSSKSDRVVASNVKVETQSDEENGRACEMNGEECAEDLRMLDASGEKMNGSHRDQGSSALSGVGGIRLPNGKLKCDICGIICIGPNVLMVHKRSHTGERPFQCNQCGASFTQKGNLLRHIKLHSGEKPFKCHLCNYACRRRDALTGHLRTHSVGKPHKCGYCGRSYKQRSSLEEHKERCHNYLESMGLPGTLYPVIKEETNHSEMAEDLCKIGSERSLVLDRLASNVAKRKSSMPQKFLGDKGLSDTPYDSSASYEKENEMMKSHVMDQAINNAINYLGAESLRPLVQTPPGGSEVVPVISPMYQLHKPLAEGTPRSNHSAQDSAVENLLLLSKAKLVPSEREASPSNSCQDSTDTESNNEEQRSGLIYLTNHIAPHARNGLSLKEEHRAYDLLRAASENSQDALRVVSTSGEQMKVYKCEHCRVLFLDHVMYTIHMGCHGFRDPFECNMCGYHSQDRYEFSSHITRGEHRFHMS
T2 sequence (Q96SW2 whole entry): as the sequence (Q96SW2 whole entry) above
T2 sequence (Q16531 whole entry partner): as the sequence (Q16531 whole entry partner) above
T3 sequence (Q9UKS7 whole entry): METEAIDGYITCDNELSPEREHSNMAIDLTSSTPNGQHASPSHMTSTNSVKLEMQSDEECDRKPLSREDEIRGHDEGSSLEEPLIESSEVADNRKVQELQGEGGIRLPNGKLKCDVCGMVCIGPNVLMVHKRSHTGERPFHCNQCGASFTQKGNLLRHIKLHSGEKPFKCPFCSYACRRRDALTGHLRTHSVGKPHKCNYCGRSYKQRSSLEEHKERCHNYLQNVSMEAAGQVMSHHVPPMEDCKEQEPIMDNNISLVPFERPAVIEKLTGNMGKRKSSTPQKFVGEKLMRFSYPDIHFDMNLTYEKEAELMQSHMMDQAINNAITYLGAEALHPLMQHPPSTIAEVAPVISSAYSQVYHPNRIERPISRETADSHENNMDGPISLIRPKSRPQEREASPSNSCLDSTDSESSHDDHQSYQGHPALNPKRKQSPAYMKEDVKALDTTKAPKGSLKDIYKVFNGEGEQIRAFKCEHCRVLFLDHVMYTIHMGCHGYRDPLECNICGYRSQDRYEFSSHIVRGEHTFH
T3 sequence (Q96SW2 whole entry): as the sequence (Q96SW2 whole entry) above
T3 sequence (Q16531 whole entry partner): as the sequence (Q16531 whole entry partner) above

Row | Compound | inhibition at 0.5 µM [7] [%] | inhibition at 2 µM [7] [%] | CK1α substrate protein remaining % [1, 8] | IKZF 1 substrate protein remaining % [2, 8] | IKZF2 substrate protein remaining % [3, 8] | IKZF3 substrate protein remaining % [4, 8] | Wee1 substrate protein remaining % [5, 8] | GSPT1 substrate protein remaining % [6, 8] | CK1α substrate protein remaining % [1, 9] | IKZF 1 substrate protein remaining % [2, 9] | IKZF2 substrate protein remaining % [3, 9] | IKZF3 substrate protein remaining % [4, 9] | Wee1 substrate protein remaining % [5, 9] | GSPT1 substrate protein remaining % [6, 9]
1 | O=C1CCC(N2Cc3cc(CN4CCN(C(c5cccnc5)c5cccnc5)CC4)ccc3C2=S)C(=O)N1 (stereo not drawn) [GT-07735, 3-(5-((4-(di(pyridin-3-yl)methyl)piperazin-1-yl)methyl)-1-thioxoisoindolin-2-yl)piperidine-2,6-dione] | 53 to 60 | 80 to 100 | B (80%< substrate protein remaining %≤ 100%) | B (80%< substrate protein remaining %≤ 100%) | B (80%< substrate protein remaining %≤ 100%) | A (0% ≤ substrate protein remaining % ≤ 80%) | A (0% ≤ substrate protein remaining % ≤ 80%) | A (0% ≤ substrate protein remaining % ≤ 80%) | – | – | – | – | – | –
2 | O=C1CCC(N2Cc3cc(CN4CCN(C(c5ccc(Cl)cc5)c5ccc(Cl)cc5)CC4)ccc3C2=S)C(=O)N1 (stereo not drawn) [GT-07737, 3-(5-((4-(bis(4-chlorophenyl)methyl)piperazin-1-yl)methyl)-1-thioxoisoindolin-2-yl)piperidine-2,6-dione] | 30 to 40 | 53 to 60 | B (80%< substrate protein remaining %≤ 100%) | A (0% ≤ substrate protein remaining % ≤ 80%) | A (0% ≤ substrate protein remaining % ≤ 80%) | A (0% ≤ substrate protein remaining % ≤ 80%) | B (80%< substrate protein remaining %≤ 100%) | A (0% ≤ substrate protein remaining % ≤ 80%) | – | – | – | – | – | –
3 | O=C1CCC(N2Cc3cc(CN4C5CC4CN(C(c4ccccc4)c4ccccc4)C5)ccc3C2=S)C(=O)N1 (stereo not drawn) [GT-07738, 3-(5-((3-benzhydryl-3,6-diazabicyclo[3.1.1]heptan-6-yl)methyl)-1-thioxoisoindolin-2-yl)piperidine-2,6-dione] | 53 to 60 | 80 to 100 | B (80%< substrate protein remaining %≤ 100%) | A (0% ≤ substrate protein remaining % ≤ 80%) | A (0% ≤ substrate protein remaining % ≤ 80%) | B (80%< substrate protein remaining %≤ 100%) | B (80%< substrate protein remaining %≤ 100%) | A (0% ≤ substrate protein remaining % ≤ 80%) | – | – | – | – | – | –
4 | O=C1CCC(N2Cc3cc(CN4C[C@@H]5C[C@H]4CN5C(c4ccccc4)c4ccccc4)ccc3C2=S)C(=O)N1 (stereo partly drawn) [GT-07739, 3-(5-(((1S,4S)-5-benzhydryl-2,5-diazabicyclo[2.2.1]heptan-2-yl)methyl)-1-thioxoisoindolin-2-yl)piperidine-2,6-dione] | 60 to 80 | 80 to 100 | B (80%< substrate protein remaining %≤ 100%) | A (0% ≤ substrate protein remaining % ≤ 80%) | A (0% ≤ substrate protein remaining % ≤ 80%) | B (80%< substrate protein remaining %≤ 100%) | B (80%< substrate protein remaining %≤ 100%) | A (0% ≤ substrate protein remaining % ≤ 80%) | – | – | – | – | – | –
5 | CC1(C)CCC(CN2CC3CC(C2)N3Cc2ccc3c(c2)CN(C2CCC(=O)NC2=O)C3=S)=C(c2ccc(Cl)cc2)C1 (stereo not drawn) [GT-08160, 3-(5-((3-((4'-chloro-5,5-dimethyl-3,4,5,6-tetrahydro-[1,1'-biphenyl]-2-yl)methyl)-3,6-diazabicyclo[3.1.1]heptan-6-yl)methyl)-1-thioxoisoindolin-2-yl)piperidine-2,6-dione] | 53 to 60 | 80 to 100 | – | – | – | – | – | – | B (80%< substrate protein remaining %≤ 100%) | B (80%< substrate protein remaining %≤ 100%) | A (0% ≤ substrate protein remaining % ≤ 80%) | A (0% ≤ substrate protein remaining % ≤ 80%) | A (0% ≤ substrate protein remaining % ≤ 80%) | A (0% ≤ substrate protein remaining % ≤ 80%)

More lines, main results first:

Row | inhibition at 0.5 µM [7] [%] | inhibition at 2 µM [7] [%] | Compound | CK1α substrate protein remaining % [1, 8] | IKZF 1 substrate protein remaining % [2, 8] | IKZF2 substrate protein remaining % [3, 8] | IKZF3 substrate protein remaining % [4, 8] | Wee1 substrate protein remaining % [5, 8] | GSPT1 substrate protein remaining % [6, 8] | CK1α substrate protein remaining % [1, 9] | IKZF 1 substrate protein remaining % [2, 9] | IKZF2 substrate protein remaining % [3, 9] | IKZF3 substrate protein remaining % [4, 9] | Wee1 substrate protein remaining % [5, 9] | GSPT1 substrate protein remaining % [6, 9]
6 | 53 to 60 | 80 to 100 | O=C1CCC(N2Cc3cc(CN4C[C@H]5C[C@@H]4CN5C(c4ccccc4)c4ccccc4)ccc3C2=S)C(=O)N1 (stereo partly drawn) [GT-07740, 3-(5-(((1R,4R)-5-benzhydryl-2,5-diazabicyclo[2.2.1]heptan-2-yl)methyl)-1-thioxoisoindolin-2-yl)piperidine-2,6-dione] | B (80%< substrate protein remaining %≤ 100%) | A (0% ≤ substrate protein remaining % ≤ 80%) | A (0% ≤ substrate protein remaining % ≤ 80%) | B (80%< substrate protein remaining %≤ 100%) | B (80%< substrate protein remaining %≤ 100%) | B (80%< substrate protein remaining %≤ 100%) | – | – | – | – | – | –
7 | 40 to 53 | 60 to 80 | CC1(C)CN(Cc2ccc3c(c2)CN(C2CCC(=O)NC2=O)C3=S)CCN1C(c1ccccc1)c1ccccc1 (stereo not drawn) [GT-07845, 3-(5-((4-benzhydryl-3,3-dimethylpiperazin-1-yl)methyl)-1-thioxoisoindolin-2-yl)piperidine-2,6-dione] | B (80%< substrate protein remaining %≤ 100%) | A (0% ≤ substrate protein remaining % ≤ 80%) | A (0% ≤ substrate protein remaining % ≤ 80%) | B (80%< substrate protein remaining %≤ 100%) | A (0% ≤ substrate protein remaining % ≤ 80%) | B (80%< substrate protein remaining %≤ 100%) | – | – | – | – | – | –
8 | 53 to 60 | 80 to 100 | O=C1CCC(N2Cc3cc(CN4CC5CCC4CN5C(c4ccccc4)c4ccccc4)ccc3C2=S)C(=O)N1 (stereo not drawn) [GT-07847, 3-(5-((5-benzhydryl-2,5-diazabicyclo[2.2.2]octan-2-yl)methyl)-1-thioxoisoindolin-2-yl)piperidine-2,6-dione] | B (80%< substrate protein remaining %≤ 100%) | B (80%< substrate protein remaining %≤ 100%) | A (0% ≤ substrate protein remaining % ≤ 80%) | A (0% ≤ substrate protein remaining % ≤ 80%) | A (0% ≤ substrate protein remaining % ≤ 80%) | A (0% ≤ substrate protein remaining % ≤ 80%) | – | – | – | – | – | –
9 | 30 to 40 | 80 to 100 | O=C1CCC(N2Cc3cc(CN4CCCN(C(c5ccccc5)c5ccccc5)CC4)ccc3C2=S)C(=O)N1 (stereo not drawn) [GT-07848, 3-(5-((4-benzhydryl-1,4-diazepan-1-yl)methyl)-1-thioxoisoindolin-2-yl)piperidine-2,6-dione] | B (80%< substrate protein remaining %≤ 100%) | B (80%< substrate protein remaining %≤ 100%) | A (0% ≤ substrate protein remaining % ≤ 80%) | A (0% ≤ substrate protein remaining % ≤ 80%) | B (80%< substrate protein remaining %≤ 100%) | A (0% ≤ substrate protein remaining % ≤ 80%) | – | – | – | – | – | –

Reference: patent EP4745135A1 (Gluetacs Therapeutics (Shanghai) Co., Ltd., priority 2023, dated 2025)
